From the supplement of paper PMC10307832

How the values were obtained:
Assay in all cases: relative viability (nuclei count vs DMSO), 5 days (fraction); higher = more cells survive
NCI-H1648 = test system: NCI-H1648
Procedure, shortened: (§1)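 Lung cancer cell lines, seeded in 1536-well plates, were treated the following day by pin tool with a single drug or with five library-drug doses (not always all listed) in √10 steps on top of a fixed anchor-drug dose. Cells were fixed and nuclei stained in one step after 5 days, and nuclei were counted. Relative viability is the nuclei count for treated wells divided by that for vehicle wells, reported as medians of duplicate plates.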

RERF-LC-KJ = test system: RERF-LC-KJ
Procedure, shortened: as §1

NCI-H520 = test system: NCI-H520
Procedure, shortened: as §1

NCI-H522 = test system: NCI-H522
Procedure, shortened: as §1

NCI-H1651 = test system: NCI-H1651
Procedure, shortened: as §1

NCI-H1703 = test system: NCI-H1703
Procedure, shortened: as §1

A549 = test system: A549
Procedure, shortened: as §1

SMILES	relative viability (NCI-H1648; first compound 0.04 µM)	relative viability (NCI-H1648; first compound 0.1265 µM)	relative viability (NCI-H1648; first compound 0.4 µM)	relative viability (RERF-LC-KJ; first compound 0.04 µM)	relative viability (RERF-LC-KJ; first compound 0.1265 µM)	relative viability (RERF-LC-KJ; first compound 0.4 µM)	relative viability (RERF-LC-KJ; first compound 1.265 µM)	relative viability (NCI-H520; first compound 0.04 µM)	relative viability (NCI-H520; first compound 0.1265 µM)	relative viability (NCI-H520; first compound 0.4 µM)	relative viability (NCI-H520; first compound 1.265 µM)	relative viability (NCI-H522; first compound 0.04 µM)	relative viability (NCI-H522; first compound 0.1265 µM)	relative viability (NCI-H522; first compound 0.4 µM)	relative viability (NCI-H522; first compound 1.265 µM)	relative viability (NCI-H1651; first compound 0.04 µM)	relative viability (NCI-H1651; first compound 0.1265 µM)	relative viability (NCI-H1651; first compound 0.4 µM)	relative viability (NCI-H1651; first compound 1.265 µM)	relative viability (NCI-H1703; first compound 0.1265 µM)	relative viability (NCI-H1703; first compound 0.4 µM)	relative viability (NCI-H1703; first compound 1.265 µM)	relative viability (A549; first compound 0.04 µM)	relative viability (A549; first compound 0.1265 µM)	relative viability (A549; first compound 0.4 µM)	relative viability (A549; first compound 1.265 µM)
O=C(O)c1ccc(-c2c[nH]c3ncc(-c4ccccc4)cc23)cc1C1CCCC1 + CC(=O)Nc1cccc(-n2c(=O)n(C3CC3)c(=O)c3c(Nc4ccc(I)cc4F)n(C)c(=O)c(C)c32)c1 [Trametinib] (partner 0.02 µM)	0.589	0.448	0.494	0.916	0.908	0.814	0.657	0.673	0.775	0.672	0.437	0.696	0.761	0.763	0.768	0.822	0.853	0.829	0.714	–	–	–	–	–	–	–
O=C(O)c1ccc(-c2c[nH]c3ncc(-c4ccccc4)cc23)cc1C1CCCC1 + CC(=O)c1c(C)c2cnc(Nc3ccc(N4CCNCC4)cn3)nc2n(C2CCCC2)c1=O [Palbociclib] (partner 0.5 µM)	0.285	0.294	0.27	1.01	1.02	0.97	0.875	0.192	0.217	0.226	0.182	0.977	1.02	1.06	1.1	0.534	0.524	0.514	0.475	–	–	–	–	–	–	–
O=C(O)c1ccc(-c2c[nH]c3ncc(-c4ccccc4)cc23)cc1C1CCCC1 + NC(=O)Nc1cc(-c2cccc(F)c2)sc1C(=O)N[C@H]1CCCNC1 [AZD7762] (partner 0.2 µM)	0.687	0.716	0.82	0.569	–	1.06	0.935	–	–	–	–	0.662	0.896	0.785	0.882	0.326	0.56	0.551	0.426	0.0651	0.148	0.135	–	–	–	–
O=C(O)c1ccc(-c2c[nH]c3ncc(-c4ccccc4)cc23)cc1C1CCCC1 + Nc1nc2[nH]cc(CCc3ccc(C(=O)N[C@@H](CCC(=O)O)C(=O)O)cc3)c2c(=O)[nH]1 [Pemetrexed] (partner 0.2 µM)	0.732	0.853	0.681	0.466	0.469	0.481	0.481	0.789	0.633	0.655	0.474	0.829	1.04	0.812	0.928	0.482	0.603	0.641	0.527	–	–	–	–	–	–	–
O=C(O)c1ccc(-c2c[nH]c3ncc(-c4ccccc4)cc23)cc1C1CCCC1 + Nc1ncn([C@H]2C[C@H](O)[C@@H](CO)O2)c(=O)n1 [Decitabine] (partner 2 µM)	0.587	0.599	0.569	0.718	0.718	0.596	0.468	0.493	0.489	0.5	0.358	0.662	0.593	0.591	0.602	0.477	0.616	0.57	0.54	–	–	–	0.291	0.265	0.277	0.251
